According to a melting point compilation (Tetko et al.):

SMILES	melting point
CC1(C)OC2CC3C4CC(F)C5=CC(=O)C=CC5(C)C4C(O)CC3(C)C2(C(=O)CO)O1 (configuration not stated)	245 °C
CCN(CC)C(=O)Nc1ccc(OCC(O)CNC(C)(C)C)c(C(C)=O)c1 (configuration not stated)	110 °C
OCc1ccc(-c2ncccn2)cc1	76.5 to 77.5 °C
N#CC(CCN1CCC(C(N)=O)(N2CCCCC2)CC1)(c1ccccc1)c1ccccc1	150 °C
C/C(=N\c1ccccc1)c1c(O)c2ccccc2n(-c2ccccc2)c1=O	184 to 185 °C
O=C(O)CC1NC(=O)NC1=O (configuration not stated)	213 to 216 °C
Cc1c(C)n(C(=O)c2ccccc2)c2ccccc12	98 °C
NC1CC1	-10 °C
CCCCCCC(=O)CCCC	2 °C
O=[N+]([O-])c1ccc(C=NN(c2ccccc2)P(=O)(N2CC2)N2CC2)cc1	150 °C
OC(c1ccc(F)cc1)(c1cncnc1)c1ccccc1Cl (configuration not stated)	126 °C
CC12CCC3C(CCC45OC4C(=O)C=CC35O)C1CCC2=O (configuration not stated)	201 to 203 °C
CC(C)=CC(=O)NS(=O)(=O)c1ccc(N)cc1	184 °C
O=C(c1ccccc1)c1cnc2ccccn2c1=O	152 to 153 °C
O=Cc1ccc(-c2cccnc2)cc1	55 °C
CCN(CC)C(=O)c1ccccc1C(=O)N(CC)CC	36 °C
CC(=O)NC(Cc1ccc(Br)cc1)C(=O)O (configuration not stated)	191 to 193 °C
Cc1cc(N)ccc1O	176 °C
CC1(C)C(O)C(C)(C)C1O (configuration not stated)	126 to 134 °C
CC(C)(C)c1ccc(S(=O)(=O)Cl)cc1	82 °C
CC(NC(=O)C(C)NC(=O)C(N)CCP(C)(=O)O)C(=O)O (configuration not stated)	160 °C
O=C(O)COc1ccc(I)cc1	157 °C
CCCCCCCCCCCCC(Oc1ccc([N+](=O)[O-])cc1)C(=O)NN (configuration not stated)	127 °C
N#CC1CN(C(c2ccccc2)c2ccccc2)C1	153 to 156 °C

SMILES	melting point
CC(=O)C(=Nc1ccccc1)c1cc(C(=Nc2ccccc2)C(C)=O)c([N+](=O)[O-])cc1[N+](=O)[O-]	174 to 175 °C
O=C(O)c1cccc(-c2ccncc2)c1	268 °C
CC(=O)Nc1ccccc1CCc1ccccc1	117 °C
CC1c2ccccc2C(=O)C1c1ccccc1 (configuration not stated)	84 to 85.5 °C
CC(=O)OCC(=O)C12N=C(C)OC1CC1C3CCC4=CC(=O)C=CC4(C)C3C(O)CC12C (configuration not stated)	256 °C
Cc1c(C(=O)Cl)cnn1-c1ccccc1	147 to 148 °C
CS(=O)(=O)c1ccc(C(=O)CBr)cc1	126 to 128 °C
CC(=O)C1(O)CCC2C3CCC4=CC(=O)CCC4(C)C3CCC21C (configuration not stated)	222 °C
CCOC(=O)C=CC(=O)O	70 °C
CC(=O)c1ccc(C2CCCCC2)cc1	68 °C
NNC(N)=O	96 °C
O=C(O)CC1CCCCC1	33 °C
NC(=O)c1cncc(Br)c1	226 °C
O=C(CCCN1CCC2(CC1)C(=O)NCN2c1ccccc1)c1ccc(F)cc1	190 °C
CCNS(=O)(=O)c1ccc(C)cc1	64 °C
Cc1ccccc1C(C)(C)C	-50 °C
C[C@@]12C=CC(=O)N1[C@@H](c1ccccc1)CO2	88 to 92 °C
CCC1CCC(C)CC1 (configuration not stated)	-80.8 °C
c1csc(NC2=NCCN2)n1	240 to 242 °C
CCN(CC)CCc1c[nH]c2ccccc12	170 °C
Cn1nc(C(=O)O)cc1-c1ccco1	142 to 144 °C
OC(c1ccccc1)c1ccc(Br)cc1 (configuration not stated)	61 to 63 °C
Clc1nc(Cl)nc(Cl)n1	154 °C
CCC1=[N+]([O-])C(C)(C)N(C)C1(C)C	32 to 34 °C

SMILES	melting point
COc1ccc(C=C(S)C(=O)O)cc1	140 °C
O=C(O)c1cc(Br)ccc1O	170 °C
O=[N+]([O-])c1ccc(S)cc1	74 to 77 °C
[O-][P+](c1ccccc1)(c1ccccc1)C1Sc2ccccc2S1	181 °C
CC(C)(C)OC(=O)N[C@H](Cc1ccc(F)cc1)C(=O)O	130 °C
Oc1c(Cl)c(Cl)c(O)c(Cl)c1Cl	239 °C
COC(=O)[C@@H](NC(=O)OCc1ccccc1)[C@@H](C)O	92 to 94 °C
COC(=O)c1ccc(C(=O)O)nc1	187 to 190 °C
CC1=C(C(=O)OCC(C)C)C(c2ccco2)NC(=O)N1 (configuration not stated)	170 to 171 °C
Cc1ccc(C(C)CCC(=O)O)cc1 (configuration not stated)	42 °C
CCc1ccccc1C(=O)N(NC(=O)c1ccccc1)C(C)(C)C	178 °C
O=c1[nH]c2ccccc2[nH]c1=O	300 °C
N=C1NC(=O)C(=NNc2ccccc2)S1	210 °C
C=C(C)CCCCCCCCC	-40 °C
O=C(O)c1cc(C(=O)O)cc(C(=O)O)c1	380 °C
CN1CCOc2cc(Br)ccc21	47 to 49 °C
Cc1cccc(N2C(=O)C3ON=C(C(=O)c4ccco4)C3C2=O)c1 (configuration not stated)	129 °C
CC(C)(C)c1ccc2ccccc2c1	-4 °C
NN=C(c1ccccc1)c1ccccc1	96.5 °C
CC=C1CCC2C3CCC4CC(OC(C)=O)CCC4(C)C3CCC12C (configuration not stated)	118 to 120 °C
NNC(=O)c1cccc2cc[nH]c12	178 °C
C=CCOC(=O)CC(C)=O	-85 °C

Other lines, results leading:

melting point	SMILES
44 °C	O=Cc1cccc(C(F)(F)F)c1Cl
148 °C	O=C(CCCN1CCC(O)(c2ccc(Cl)cc2)CC1)c1ccc(F)cc1
135 to 136 °C	NC(=S)c1ccc(Cl)cc1Cl
276 °C	Fc1ccc(C=Nn2c(C(F)(F)F)n[nH]c2=S)cc1
29.5 °C	Nc1ccc(C(F)(F)F)cc1Br
259 to 261 °C	CC(=O)NC1=NC(=O)C(=Cc2coc3ccc(Br)cc3c2=O)N1C
207 to 210 °C	O=C1OC(=O)c2ccc(Cl)c3cccc1c23
34 °C	Cc1cccc2ccccc12
166 °C	O=C(Cc1ccccc1[N+](=O)[O-])c1ccccc1[N+](=O)[O-]
41 to 43 °C	NCc1ccc2sccc2c1
46 to 48 °C	N#CCOc1ccc(Cl)cc1Cl
61.5 °C	Fc1cccc(P(c2cccc(F)c2)c2cccc(F)c2)c1
300 °C	Cc1ccc2c(O)c(-c3ccccc3)c(=O)[nH]c2c1
200 to 202 °C	NN1C(=O)c2ccccc2C1=O
80 °C	N#CCSc1ccc(Cl)cc1
210 °C	O=C(Nc1cc(Cl)cc(Cl)c1O)c1c(O)c(Cl)cc(Cl)c1Cl
100 °C	Nc1cc(C(F)(F)F)ccc1[N+](=O)[O-]
73.8 to 75.1 °C	CC(=O)CC(=O)c1c(C)c(C)c(C)c(C)c1C
109 °C	CC1(C)OC(=O)C(=Cc2ccc(-c3ccc(Cl)cc3)o2)C(=O)O1

melting point	SMILES
49 to 51 °C	COc1ccc(OC)c(C(C)=O)c1O
79 to 84 °C	O=S(=O)(Cl)c1cc(S(=O)(=O)Cl)c(Cl)s1
291 °C	Nc1nn2c(C(F)(F)F)cc(=O)[nH]c2c1/N=N/c1cccc(C(F)(F)F)c1
200 °C	COc1ccc2c(c1)C(=O)C(=O)N2
105 to 107 °C	Sc1c(Cl)c(Cl)cc(Cl)c1Cl
168 to 170 °C	Cc1nc(-c2ccccc2)sc1C(=O)NN
80 to 81 °C	Cn1nc(-c2ccc(C=O)s2)cc1C(F)(F)F
262 °C	COc1ccc(C=Nn2c(S)nnc2CCn2c(C)nc3ccccc32)cc1
18 °C	O=C(O)CCCCCl
190 to 191 °C	COc1ccc(/C=C/c2ccc([N+](=O)[O-])cc2[N+](=O)[O-])cc1O
188 °C	Cc1c2c(c(C)c3c1CC3=O)C(=O)C2
116 °C	COc1ccc(CCc2cc(OC)c3ccccc3n2)cc1OC
138 to 139 °C	O=c1c(Cl)c(Cl)cnn1Cc1ccc(Cl)cc1
261 °C	CC12CCc3c(ccc4cc(O)ccc34)C1(C)CCC2=O (configuration not stated)
170 °C	NNc1cnn(-c2ccccc2)c(=O)c1Cl
247 to 254 °C	O=C1OC(=O)c2cc([N+](=O)[O-])cc3cccc1c23
142 °C	COc1ccc(-c2csc(/C(C#N)=C/c3ccc(Cl)cc3Cl)n2)cc1
121 to 122 °C	c1ccc(-c2nc3ccccc3nc2-c2ccc3ccccc3c2)cc1
137 °C	COCCNc1c(C=O)c(=O)n(C)c(=O)n1C

melting point	SMILES
113 °C	COc1c(C)c(C)c(OC)c2c1CC2Cl (configuration not stated)
28.5 °C	CCCCOC(=O)COc1cc(Cl)c(Cl)cc1Cl
128 °C	C=C(C)C(=O)Nc1ccc(Cl)c(Cl)c1
208 to 209 °C	Cc1ccc(C(=O)O)cc1Cl
118 °C	O=C(O)Cc1ccc(F)cc1F
63 to 66 °C	CC(=O)c1ccc(OCCCCCBr)cc1O
77 to 78 °C	Fc1c(F)c(CCl)c(F)c(F)c1CCl
61 °C	O=Cc1ccc(Br)cc1F
168 °C	COC(=O)c1c2c(c(C)c3c1CC3=O)C(=O)C2
192 °C	Cc1cc(C)c(N)c(C(=O)O)c1
219 to 226 °C	O=C(c1ccc2c(c1)C(=O)OC2=O)c1ccc2c(c1)C(=O)OC2=O
182 °C	CN(C)CCCC1(c2ccc(F)cc2)OCc2cc(C#N)ccc21 (configuration not stated)
72 to 73 °C	Cn1nc(CCl)cc1-c1ccco1
209 to 211 °C	NC(=O)c1cccnc1Sc1ccc(Cl)cc1
-72 °C	FC(F)(Cl)C(F)(Cl)C(F)(F)Cl
50 to 52 °C	CCOC(=O)c1cnn(-c2ccc(Cl)cc2)c1C(F)(F)F
105 to 109 °C	Cc1ccc(S(=O)(=O)NC(Cc2ccccc2)C(=O)CCl)cc1 (configuration not stated)
118 to 120 °C	CC(=O)Nc1ccc(C#N)cc1OC(F)(F)F
167 °C	Clc1ccc(Cn2c(CN3CCCC3)nc3ccccc32)cc1
